# Experimental data reported in US9328059B2, “Pharmaceutical composition for preventing or treating autophagy-related diseases, angiogenic diseases or melanin-related diseases” (INDUSTRY-ACADEMIC COOPERATION FOUNDATION, YONSEI UNIVERSITY, priority 2010, dated 2016).
# Legend:
# [1] = tested on: HeLa cells; test: LC3 immunoblotting (LC3-I to LC3-II conversion) in HeLa; format: cell-based, human; conditions: for effect of autophagy inhibitor on indatraline-induced conversion of LC3-I to LC3-II: inhibitor pre-treated 1 hr
# Method: (§1) Soluble proteins were harvested from indatraline-treated HeLa cells by using SDS buffer (50 mM Tris HCl, pH 6.8, 10% glycerol, 2% SDS, 10 mM dithiothreitol, and 0.005% bromophenol blue). Equal volumes of proteins were separated by 12.5% SDS-PAGE and transferred to PVDF membranes (Millipore). Blots were then blocked and immunolabeled overnight at 4° C. using anti-LC3 antibody (MBL, Nagoya, Japan). Immunolabeling was visualized with enhanced chemiluminescence (ECL) kit (Amersham Life Science, Inc., Buckinghamshire, UK) according to the manufacturer's protocol. Tubulin was used as an internal control and was detected using anti-tubulin antibody (Upstate Biotechnology).
# LC3 conversion was finally verified by immunoblotting. After indatraline treatment for 24 hrs, the conversion of LC3-I to LC3-II in cells was tested (FIG. 2A). Inductions of autophagy in both of HUVEC and HeLa cells were tested in concentration starting from 5 μM. In order to investigate signal pathway related to indatraline, well-known autophagy inhibitors 3-MA (10 mM), Bafilomycin A (100 nM), PD98059 (10 μM) and Wortmannin (100 nM) was treated with indatraline. The inhibitors were pre-treated for 1 hr before indatraline and treated with 5 μM or 10 μM of indatraline. Where indatraline was treated with 5 μM of concentration, the conversion of LC3-I to LC3-II was inhibited in Bafilomycin A-treated sample and Wortmannin-treated sample (FIG. 2B). However, where indatraline was treated with 10 μM of concentration, the conversion of LC3-I to LC3-II was not inhibited in inhibitor-treated samples, except for Bafilomycin A-treated sample.
# [2] = tested on: COS7 cells stably expressing EGFP-LC3; test: Autophagy detection in stable cell line expressing EGFP-LC3; format: cell-based, African green monkey; conditions: COS7 EGFP-LC3, 24 hrs
# Method: HeLa (human epithelial cervix adenocarcinoma) cells and COS-7 (African green monkey kidney cells) cells (Korean Cell Line Bank) were grown and maintained in DMEM containing 10% FBS (fetal bovine serum). A stable COS7 cell line expressing EGFP-LC3 was established by transfecting COS7 cells with pEGFP-LC3 using Lipofectamine 2000 according to the manufacturer's protocol (Invitrogen). Stable clones were selected in complete medium containing 750 μg/mL of G418. Cells were cultured at 37° C. in an atmosphere of 5% CO2 in air, pH 7.4. DMEM and FBS were obtained from Gibco Laboratories (Grand Island, N.Y.). Plasmids encoding EGFP-LC3 was kindly provided by Tamotsu Yoshimori (National Institute for Basic Biology, Japan).
# In order to measure direct elements of autophagy, indatraline-induced autophagy was further verified in stable COST cell line expressing EGFP-LC3. Where autophagy was induced, the cytosolic form of LC3 is converted into the membrane-bound form. By the recruitment of Atg12-Atg5 complex, the cytosolic form of LC3 is converted into the membrane-bound form to mature the autophagosome. After indatraline treatment for 24 hrs, EGFP-LC3 positive small vacuoles were examined in the cytosol.
# [3] = tested on: melan-a cells; test: Measurement of amounts of melanin generated in melan-a; conditions: 5 μM, vs control group
# Method: (§4) In order to verify whether indatraline induces autophagy and is involved in melanogenesis, skin cancer cell line B16-F10 and normal skin cell line melan-a were treated with indatraline to determine autophagy generation. The amount of melanin generated in each cell line was measured at 5 μM concentration in which autophagy strongly occurs. For measurement on amounts of melanin, cells were treated with indatraline for 24, 48 and 72 hrs, and collected with KOH every day to measure melanin pigment absorbance at 410 nm. At the same time, cell proliferation was measured using MTT.
# (§5) The amount of melanin generated in each cell line was measured at 5 μM of concentration which autophagy surely occurs. […] At the same time, cell growth was measured.
# [4] = tested on: HUVEC; test: VEGF-induced capillary formation assay; format: cell-based; conditions: VEGF 50 ng/ml
# Method: Matrigel (10 mg/mL) (BD, USA) was coated to 48-well plates and polymerized at 37° C. HUVEC (6×10^4 cells) was inoculated on the surface of matrigel in 48-well plates. Under the presence of VEGF (50 ng/ml), the compound was added for 4 hrs at 37° C. Cell morphological changes and a capillary structure formed were observed microscope (IX71, Olympus), and the images were obtained using DP70 camera (Olympus) at 100× magnification.
# [5] = tested on: HeLa cell; test: Cytotoxicity during autophagy screening in HeLa; format: cell-based, human; conditions: 5 μM, 24 hrs
# Method: (§2) The present study is newly reported that indatraline induces autophagy. Although the relationship between neurotransmitter inhibitor and autophagy has been studying, specific mechanisms for each neurotransmitter inhibitor have not yet been unknown. Indatraline-induced autophagy was verified by fluorescence screening and LC3 conversion immunoblotting. In addition, indatraline inhibits cell proliferation with an IC50 of 3 μM in HeLa cell and an IC50 of 0.5 μM in HUVEC cell, respectively. […] In addition, angiogenesis inhibitory effect of indatraline is tested as autophagy inducer and cell growth inhibitor. Indatraline of In vitro assay inhibits capillary formation, invasion and migration as angiogenesis indicators. […] Induction of autophagy may trigger signal inhibiting angiogenesis, or inhibition of neurotransmitter may simultaneously stimulate inhibitions of both of autophagy and angiogenesis.
# [6] = tested on: HUVEC; test: Cell migration (wound) assay; format: cell-based; conditions: 5 μM and 10 μM, 9 hrs
# Method: To measure cell migration, HUVEC cells were cultured up to 100% confluence in 12-well plates. Then, the well was wounded a straight scratch using a 200 μL pipette tip. Cells were treated with indatraline and cells migration was observed every 3 hrs. The wound at 9 hrs was recovered by almost 80%. The images were obtained using DP70 camera with 40× magnification.
# [7] = tested on: B16-F10 cells; test: Cell growth (MTT) in B16-F10; conditions: B16-F10, 5 μM, vs control group
# Method: as §4, §5
# [8] = tested on: rat carotid artery; test: Inhibition of angiostenosis after balloon injury; format: in vivo; conditions: 7 days
# Method: In order to verify effects for inhibiting angiostenosis by indatraline as autophagy-induced material in rat carotid artery, a balloon injury was created in the normal left rat carotid artery. After balloon injury, indatraline, rapamycin and DMSO (control group) were treated using catheter to observe angiostenosis. […] At 7 days after the injury, the carotid arteries were excised. Smooth muscle cells were stained with hematoxylin and eosin (H&E). Levels of angiostenosis were observed.
# After balloon injury, indatraline, rapamycin and DMSO (control group) were treated using catheter to observe angiostenosis. […] The ratio between intima area and media area was compared by observing tissue stenosed.
# [9] = tested on: HUVEC; test: Cell proliferation assay (MTT) in HUVEC; format: cell-based; conditions: Homo sapiens, 72 h, 3 days
# Method: (§3) Cell proliferation was measured using a MTT [3-(4,5-dimethylthiazol-2-yl)-2,5-diphenyltetrazolium bromide] colorimetric assay. HeLa cells and HUVEC (Lonza, USA) were seeded at a density of 3×10^3 cells/well in 96-well plates and incubated for 24 hrs. Cells were treated with various concentration of indatraline. After 3 days of treatment, 2 mg/mL MTT was added to each well and incubated for 4 hrs. MTT formazoan in each well was dissolved in 150 μL of DMSO, and absorbance at 595 nm was measured in a microplate reader (Bio-Tek Instrument Inc., Winooski, Vt.). Relative cell growth was measured by calculating the ratio between signal of indatraline-treated wells and control wells.
# [10] = tested on: skin cancer cell line B16-F10; test: LC3 conversion in B16-F10; format: cell-based; conditions: B16-F10, 5 μM and 10 μM
# [11] = tested on: normal skin cell line melan-a; test: LC3 conversion in melan-a; format: cell-based
# Method: It was verified whether indatraline is induced autophagy and involved in melanogenesis. The correlation of autophagy and melanogenesis has been studied as described above. Pigmentation disorders are generated by melanogenesis (chloasma, freckle, age spot, etc.), and abnormality of melanogenesis control can lead to melanoma (skin cancer). Therefore, melanogenesis control may be used to whitening and skin cancer treatment. […] As a result, it was determined that autophagy was induced. […] In melan-a cells, LC3 conversion was observed from 1 μM of concentration (FIG. 5A).
# [12] = tested on: melan-a cells; test: Cell growth (MTT) in melan-a; conditions: 5 μM, vs control group
# Method: as §4, §5
# [13] = tested on: HUVEC; test: LC3 immunoblotting (LC3-I to LC3-II conversion) in HUVEC; format: cell-based; conditions: 24 hrs
# Method: as §1
# LC3 conversion was finally verified by immunoblotting. After indatraline treatment for 24 hrs, the conversion of LC3-I to LC3-II in cells was tested (FIG. 2A). Inductions of autophagy in both of HUVEC and HeLa cells were tested in concentration starting from 5 μM. In order to investigate signal pathway related to indatraline, well-known autophagy inhibitors 3-MA (10 mM), Bafilomycin A (100 nM), PD98059 (10 μM) and Wortmannin (100 nM) was treated with indatraline. The inhibitors were pre-treated for 1 hr before indatraline and treated with 5 μM or 10 μM of indatraline. […]
# [14] = tested on: HUVEC; test: VEGF-induced chemoinvasion assay; format: cell-based
# Method: In vitro HUVEC invasion was verified using Transwell chamber equipped 8.0-1 m size pore polycarbonate filter insert. Briefly, the lower layer surface of the filter was coated with gelatin (1 mg/mL), and the upper layer surface of the filter was coated with matrigel (3 mg/mL). HUVEC (7×10^4 cells) was placed in the upper layer of the filter, and the compound was added to the lower layer of the filter under the presence of VEGF (50 ng/ml). Then, the chamber was incubated at 37° C. for 18 hrs. The cells were fixed with 70% methanol and stained with hematoxylin and eosin. The lower layer of the filter was observed by microscope with 100× magnification to measure the cell invasion. The cell images were obtained using DP70 camera.
# [15] = tested on: HeLa cells; test: Cell proliferation assay (MTT) in HeLa; format: cell-based; conditions: Homo sapiens, 72 h, 3 days
# Method: as §3
# [16] = tested on: B16-F10 cells; test: Measurement of amounts of melanin generated in B16-F10; conditions: B16-F10, 5 μM, vs control group
# Method: as §4, §5
# [17] = tested on: HeLa cells; test: Autophagy detection by Lysotracker fluorescence, quantified by HCS
# Text: (§6) Each sample was washed with PBS three times and visualized by fluorescence microscopy. […] Hoechst 33258 and LysoTracker were purchased from Molecular Probes (Eugene, Oreg.), and MDC was purchased from BioChemika (Sigma, Switzerland).
# [18] = tested on: HeLa cells; test: Autophagy detection by MDC staining; conditions: 24 hrs
# Text: as §6
# [19] = tested on: HUVEC cell; test: Cytotoxicity during autophagy screening in HUVEC; format: cell-based; conditions: 5 μM, 24 hrs
# Method: as §2
smiles,measurement,setting,value
CO/C1=C\C(C)=C\[C@@H](C)[C@@H](O)[C@@H](C)C/C(C)=C/C=C/[C@H](OC)[C@@H]([C@@H](C)[C@@H](O)[C@H](C)[C@@]2(O)C[C@@H](O)[C@H](C)[C@@H](C(C)C)O2)OC1=O [Bafilomycin A],effect of autophagy inhibitor on indatraline-induced conversion of LC3-I to LC3-II,[1]; indatraline 5 μM,inhibited
same,effect of autophagy inhibitor on indatraline-induced conversion of LC3-I to LC3-II,[1]; indatraline 10 μM,inhibited
CN[C@@H]1C[C@@H](c2ccc(Cl)c(Cl)c2)c2ccccc21 [indatraline],EGFP-LC3 fluorescence in the cytoplasm,[2],increased indatraline concentration-dependently
same,concentration from which LC3 conversion (autophagy induction) occurs,"[1]; HeLa, 24 hrs",≥ 5 µM
same,melanogenesis inhibited,[3]; 48 hrs,approximately 89%
same,melanogenesis inhibited,[3]; 72 hrs,approximately 74%
same,VEGF-induced capillary formation,[4]; 1 μM,inhibited the mature capillary formation
same,capillary formation,[4]; 4 hrs,weakly inhibited
same,cytotoxicity,[5],no cytotoxicity
same,migration of HUVEC,[6],inhibited migration
same,cell growth inhibited,[7]; 24 hrs,55%
same,cell growth inhibited (maintained),[7]; after 24 hrs (maintained),54%
same,angiostenosis,[8],significantly inhibited
same,proliferation of smooth muscle cells,[8],inhibited
same,intima area (ratio between intima area and media area),[8]; control approximately 80%,less than 60%
same,smooth muscle cell growth reduced compared to control group,"[8]; catheter treatment, intima/media ratio",approximately 20%
same,IC50,[9],500 nM
same,LC3 conversion,[10],strongly occurred
same,concentration from which LC3 conversion is observed,[11],≥ 1 µM
same,cell growth inhibited,[12]; 24 hrs,62%
same,cell growth inhibited (maintained),[12]; after 24 hrs (maintained),56%
same,concentration from which LC3 conversion (autophagy induction) occurs,[13],≥ 5 µM
same,VEGF-induced invasion,"[14]; 0.5 μM and 1 μM, 18 hrs",significantly decreased invasion cells
same,concentration from which VEGF-induced invasion is effectively inhibited,[14]; FIG. 4B legend,≥ 5 µM
same,IC50,[15],3000 nM
same,melanogenesis inhibited,[16]; 48 hrs,approximately 77%
same,melanogenesis inhibited,[16]; 72 hrs,approximately 59%
same,autophagy induction (Lysotracker fluorescence) relative to control group,"[17]; 1 μM, 24 hrs, HCS",2.87 times
same,autophagy induction in HCS,[17]; Lysotracker,induced autophagy similar to rapamycin
same,MDC staining fluorescence,[18],dose-dependent increase of fluorescence from 1 μM
same,cytotoxicity,[19],no cytotoxicity
